Values quoted from earlier work, collected in US10332616B2, “Movable type method applied to protein-ligand binding” (University of Florida Research Foundation, Inc., priority 2013, dated 2019).
Like-named read-outs stand apart in the source and are kept apart here.

Assays:
[1] = molecular target: T4 Lysozyme mutant; conditions: PDB ID 1LI2
[2] = experimental solvation free energy
[3] = test set with 372 neutral compounds

Row | SMILES | Exp. ΔGsolv ([2]; neutral compounds test set) | further results
1 | Oc1ccccc1 [phenol] | – | binding affinity (pKd) [1]: 4.04
2 | c1ccncc1 [Compound 0116pyr] | – | Exp. ΔGsolv [2, 3]: -4.7 kcal/mol
3 | FC(F)(F)CCl [Compound 0205chl] | – | Exp. ΔGsolv [2, 3]: 0.06 kcal/mol
4 | COP(=S)(OC)Oc1ccc([N+](=O)[O-])cc1 [Compound 0441pho] | -7.62 kcal/mol | –
5 | CCCSC(=O)N(CCC)CCC [test1057] | -4.1 kcal/mol | –
6 | CC(C)Br [Compound 0183bro] | – | Exp. ΔGsolv [2, 3]: -0.48 kcal/mol
7 | CSc1ccccc1 [Compound 0144thi] | -2.73 kcal/mol | –
8 | CNC(C)=O [Compound 0234ENmb] | -10 kcal/mol | –
9 | CCCC(=O)O [Compound 0088but] | -6.36 kcal/mol | –
10 | Sc1ccccc1 [Compound 0139thi] | -2.55 kcal/mol | –
11 | Nc1ccccc1 [Compound 0118ani] | -5.49 kcal/mol | –
12 | Cc1ccncc1 [Compound 0121met] | – | Exp. ΔGsolv [2, 3]: -4.94 kcal/mol
13 | COc1ccccc1C(=O)O [test3007] | -10.32 kcal/mol | –
14 | ClC1=C(Cl)C2(Cl)C3C(Cl)C=CC3C1(Cl)C2(Cl)Cl (centres unmarked) [test1033] | – | Exp. ΔGsolv [2, 3]: -2.6 kcal/mol
15 | CCOC(C)=O [Compound 0095eth] | -3.1 kcal/mol | –
16 | COC(=O)c1ccccc1S(=O)(=O)NC(=O)Nc1nc(C)nc(OC)n1 [test1039] | -15.5 kcal/mol | –
17 | CC(=O)OCC(COC(C)=O)OC(C)=O [test0001] | -8.84 kcal/mol | –
